Legend:
OAT3 = molecular target: T1, OAT3 (Homo sapiens, UniProt Q8TCC7); assay: transporter substrate/inhibitor assessment; assay type: in vitro ADME
T1 sequence (Q8TCC7 1-542): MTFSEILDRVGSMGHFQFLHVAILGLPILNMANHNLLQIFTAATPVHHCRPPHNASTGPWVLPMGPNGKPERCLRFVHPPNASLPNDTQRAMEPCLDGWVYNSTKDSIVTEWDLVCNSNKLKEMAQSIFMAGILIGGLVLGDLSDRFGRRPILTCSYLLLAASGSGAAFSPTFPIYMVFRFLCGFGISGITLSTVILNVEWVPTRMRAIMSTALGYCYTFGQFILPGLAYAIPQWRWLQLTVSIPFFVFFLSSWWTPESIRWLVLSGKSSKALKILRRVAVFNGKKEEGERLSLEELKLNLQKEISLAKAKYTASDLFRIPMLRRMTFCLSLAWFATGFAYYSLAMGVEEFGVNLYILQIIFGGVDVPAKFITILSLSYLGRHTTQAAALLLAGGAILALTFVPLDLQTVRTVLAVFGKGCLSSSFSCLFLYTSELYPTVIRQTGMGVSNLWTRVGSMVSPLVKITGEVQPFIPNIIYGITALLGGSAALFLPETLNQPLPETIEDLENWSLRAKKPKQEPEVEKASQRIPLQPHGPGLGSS

OATP1B1 = molecular target: T2, OATP1B1 (Homo sapiens, UniProt Q9Y6L6); assay: transporter substrate/inhibitor assessment; assay type: in vitro ADME
T2 sequence (Q9Y6L6 1-691): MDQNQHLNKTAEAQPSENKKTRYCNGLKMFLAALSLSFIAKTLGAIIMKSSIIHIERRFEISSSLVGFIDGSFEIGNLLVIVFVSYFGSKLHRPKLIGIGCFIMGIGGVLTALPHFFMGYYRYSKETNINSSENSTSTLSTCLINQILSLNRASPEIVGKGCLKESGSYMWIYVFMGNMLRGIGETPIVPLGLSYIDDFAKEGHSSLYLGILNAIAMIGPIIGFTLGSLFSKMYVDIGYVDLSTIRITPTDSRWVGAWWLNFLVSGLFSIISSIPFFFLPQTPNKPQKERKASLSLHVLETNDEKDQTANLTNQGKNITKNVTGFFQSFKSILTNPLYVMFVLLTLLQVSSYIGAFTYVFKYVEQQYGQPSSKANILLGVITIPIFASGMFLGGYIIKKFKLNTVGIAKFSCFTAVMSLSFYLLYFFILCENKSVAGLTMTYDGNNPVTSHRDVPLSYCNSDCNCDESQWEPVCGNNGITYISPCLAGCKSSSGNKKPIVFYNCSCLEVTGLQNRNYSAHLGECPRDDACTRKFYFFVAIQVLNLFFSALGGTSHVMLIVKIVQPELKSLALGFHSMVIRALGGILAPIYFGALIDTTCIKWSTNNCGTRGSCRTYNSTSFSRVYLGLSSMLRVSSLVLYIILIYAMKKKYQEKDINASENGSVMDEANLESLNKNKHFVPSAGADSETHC

CYP2C9 = CYP2C9 induction in vitro; assay type: in vitro ADME, human
CYP2B6 = CYP2B6 induction in vitro; assay type: in vitro ADME, human
[1] = zanubrutinib PBPK model parameters; parameters: species or system human
P‐gp = P‐gp (Homo sapiens, UniProt P08183); assay: transporter substrate assessment; assay type: in vitro ADME
Chain of P‐gp (P08183 whole entry): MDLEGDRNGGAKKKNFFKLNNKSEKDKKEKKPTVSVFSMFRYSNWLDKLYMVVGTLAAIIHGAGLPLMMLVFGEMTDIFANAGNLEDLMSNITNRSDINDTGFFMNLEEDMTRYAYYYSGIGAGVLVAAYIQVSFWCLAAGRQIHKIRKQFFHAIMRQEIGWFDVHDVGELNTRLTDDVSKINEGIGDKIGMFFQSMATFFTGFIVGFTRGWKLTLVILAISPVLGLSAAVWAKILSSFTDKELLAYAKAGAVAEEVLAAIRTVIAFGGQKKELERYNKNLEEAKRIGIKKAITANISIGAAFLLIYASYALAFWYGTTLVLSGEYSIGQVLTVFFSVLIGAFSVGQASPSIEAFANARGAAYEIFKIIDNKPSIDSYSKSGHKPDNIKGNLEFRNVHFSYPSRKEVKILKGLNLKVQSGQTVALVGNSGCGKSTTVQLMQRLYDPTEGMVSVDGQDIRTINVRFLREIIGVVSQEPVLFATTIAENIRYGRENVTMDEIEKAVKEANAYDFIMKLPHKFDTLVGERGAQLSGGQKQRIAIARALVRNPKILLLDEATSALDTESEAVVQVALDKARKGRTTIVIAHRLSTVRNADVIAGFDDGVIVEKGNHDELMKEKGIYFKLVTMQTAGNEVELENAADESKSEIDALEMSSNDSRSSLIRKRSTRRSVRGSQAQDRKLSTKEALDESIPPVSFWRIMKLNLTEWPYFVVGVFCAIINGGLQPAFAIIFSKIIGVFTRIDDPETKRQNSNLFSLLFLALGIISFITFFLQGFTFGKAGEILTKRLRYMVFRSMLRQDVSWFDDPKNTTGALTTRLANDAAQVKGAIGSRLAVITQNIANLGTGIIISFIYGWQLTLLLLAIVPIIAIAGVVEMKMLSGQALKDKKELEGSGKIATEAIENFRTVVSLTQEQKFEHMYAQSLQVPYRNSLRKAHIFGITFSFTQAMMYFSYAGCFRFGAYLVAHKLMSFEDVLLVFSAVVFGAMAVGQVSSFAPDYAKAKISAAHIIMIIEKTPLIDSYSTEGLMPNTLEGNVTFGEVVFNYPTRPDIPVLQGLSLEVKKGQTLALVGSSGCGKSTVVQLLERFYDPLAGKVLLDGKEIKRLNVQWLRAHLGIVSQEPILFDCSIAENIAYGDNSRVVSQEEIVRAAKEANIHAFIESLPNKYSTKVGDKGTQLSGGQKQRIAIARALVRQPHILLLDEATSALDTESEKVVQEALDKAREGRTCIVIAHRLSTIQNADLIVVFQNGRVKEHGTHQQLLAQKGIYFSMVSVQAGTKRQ

CYP2C19 = CYP2C19 induction in vitro; assay type: in vitro ADME, human
[2] = fraction of unbound drug in plasma; assay type: in vitro ADME
OAT1 = molecular target: T3, OAT1 (Homo sapiens, UniProt Q4U2R8); assay: transporter substrate/inhibitor assessment; assay type: in vitro ADME
T3 sequence (Q4U2R8 1-563): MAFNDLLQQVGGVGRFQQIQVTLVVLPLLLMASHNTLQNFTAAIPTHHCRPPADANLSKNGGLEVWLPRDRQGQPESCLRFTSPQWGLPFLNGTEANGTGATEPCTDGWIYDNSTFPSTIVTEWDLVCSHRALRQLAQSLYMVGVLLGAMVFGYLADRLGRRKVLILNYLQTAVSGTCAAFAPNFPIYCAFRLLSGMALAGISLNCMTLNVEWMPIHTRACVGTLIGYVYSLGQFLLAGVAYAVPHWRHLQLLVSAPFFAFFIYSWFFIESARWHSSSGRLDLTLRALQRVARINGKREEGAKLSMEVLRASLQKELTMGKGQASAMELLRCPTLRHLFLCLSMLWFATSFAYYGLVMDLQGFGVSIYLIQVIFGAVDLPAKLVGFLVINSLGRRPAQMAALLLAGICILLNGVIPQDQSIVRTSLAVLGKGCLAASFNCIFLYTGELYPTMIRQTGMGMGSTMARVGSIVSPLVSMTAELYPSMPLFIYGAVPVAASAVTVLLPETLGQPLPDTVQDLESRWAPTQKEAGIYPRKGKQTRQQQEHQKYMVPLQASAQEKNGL

C=CC(=O)N1CCC([C@@H]2CCNc3c(C(N)=O)c(-c4ccc(Oc5ccccc5)cc4)nn32)CC1 [zanubrutinib, Zanubrutinib]
substrate or inhibitor of OAT3 (OAT3): not a substrate or inhibitor
substrate or inhibitor of OATP1B1 (OATP1B1): not a substrate or inhibitor
increase of CYP2B6 mRNA levels (CYP2B6; 0.3 μM): 1.6 fold
increase of CYP2B6 mRNA levels (CYP2B6; 3 μM): 3.6 fold
increase of CYP2B6 mRNA levels (CYP2B6; 30 μM): 2.6 fold
Indmax CYP2B6 (CYP2B6; Emax model): 2.21 fold
EC50 (CYP2B6; human, hepatocytes): 730 nM
R3 (CYP2B6 induction potential) (CYP2B6; per FDA DDI guidance, from in vitro data): 0.55
Estimated renal contribution [1]: Based on human absorption, metabolism, and excretion study (BGB−3111–105); Estimated renal contribution: 1.6% of total CL
CL renal ([1]; human, urine, oral, 320 mg): 8.33 mL/min
P-gp substrate (P‐gp): likely to be a substrate
fraction unbound [2]: 0.0582
substrate or inhibitor of OAT1 (OAT1): not a substrate or inhibitor
